IC50 data for 20 molecules are collected here from patent US10246453B2, “Benzenesulfonamide compounds and their use as therapeutic agents” (Xenon Pharmaceuticals Inc., priority 2016, dated 2019).

The target of one data set is NaV1.5 (Homo sapiens (Human), UniProt Q14524). As to the kind of experiment: Sodium Influx Assay (Flux), NaV1.5. To be noted: read-out: Flux NaV1.5 IC50; Trex HEK293 cells, ANG2 dye; arithmetic mean.
In another data set the target is NaV1.1 (Homo sapiens (Human), UniProt P35498). As to the kind of experiment: Sodium Influx Assay (Flux), NaV1.1. Type of data set: cell-based. The note with it: Trex HEK293 cells, ANG2 dye; arithmetic mean.
Data set [1] addresses T1, NaV1.6 (Homo sapiens (Human), UniProt Q9UQD0). As to the kind of experiment: Electrophysiological Assay (EP), patch voltage clamp, NaV1.6. The note with it: HEK-293 cells, whole-cell patch clamp, inactivated state; arithmetic mean. Type of data set: cell-based. An excerpt:
Patch voltage clamp electrophysiology allows for the direct measurement and quantification of block of voltage-gated sodium channels (Nay's), and allows the determination of the time-and voltage-dependence of block which has been interpreted as differential binding to the resting, open, and inactivated states of the sodium channel (Hille, B., Journal of General Physiology (1977), 69: 497-515).
NaV1.1, NaV1.5 and NaV1.6 cDNAs (NM_001165964 (SCN1A), NM_000335 (SCN5A) and NM_014191 (SCN8A), respectively) were stably expressed in HEK-293 cells.
Sodium currents were measured using the patch clamp technique in the whole-cell configuration using either a PatchXpress automated voltage clamp or manually using an Axopatch 200B (Axon Instruments) or Model 2400 (A-M systems) amplifier.
The manual voltage clamp protocol was as follows: Borosilicate glass micropipettes were fire-polished to a tip diameter yielding a resistance of 2-4 Mohms in the working solutions. […] In some studies, the external sodium was reduced by equimolar replacement with choline. Osmolarity in the CsF internal and NaCl external solutions was adjusted to 300 mOsm/kg and 310 mOsm/kg with glucose, respectively. All recordings were performed at ambient temperature in a bath chamber with a volume of 150 μL. Control sodium currents were measured in 0.5% DMSO. Controls and representative compounds of the invention were applied to the recording chamber through a 4-pinch or 8-pinch valve bath perfusion system manufactured by ALA Scientific Instruments.
Currents were recorded at 40 kHz sampling frequency, filtered at […], and stored using a Digidata-1322A analogue/digital interface with the pClamp software (Axon Instruments). Series resistance compensation was applied (60-80%). […] All statistics in this study are given as mean±SD.
The membrane potential was maintained at a voltage where inactivation of the channel is complete. The voltage is then stepped back to a very negative (Vhold=−150 mV) voltage for 20 ms and then a test pulse is applied to quantify the compound block. The 20 ms brief repolarization was long enough for compound-free channels to completely recover from fast inactivation, but the compound-bound channels recovered more slowly such that negligible recovery could occur during this interval. The percent decrease in sodium current following wash-on of compound was taken as the percent block of sodium channels.
A general note: Patch clamp records ionic current or voltage across a cell membrane.

The target in data set [2] is T1, NaV1.6. As to the kind of experiment: Sodium Influx Assay (Flux), NaV1.6. To be noted: read-out: Flux NaV1.6 IC50; Trex HEK293 cells, ANG2 dye; arithmetic mean.

SMILES strings stand for the structures. Counter-ions that a name gives are not always drawn.

NaV1.5, sequence (Q14524 other isoform, or with tags, fused parts or gaps): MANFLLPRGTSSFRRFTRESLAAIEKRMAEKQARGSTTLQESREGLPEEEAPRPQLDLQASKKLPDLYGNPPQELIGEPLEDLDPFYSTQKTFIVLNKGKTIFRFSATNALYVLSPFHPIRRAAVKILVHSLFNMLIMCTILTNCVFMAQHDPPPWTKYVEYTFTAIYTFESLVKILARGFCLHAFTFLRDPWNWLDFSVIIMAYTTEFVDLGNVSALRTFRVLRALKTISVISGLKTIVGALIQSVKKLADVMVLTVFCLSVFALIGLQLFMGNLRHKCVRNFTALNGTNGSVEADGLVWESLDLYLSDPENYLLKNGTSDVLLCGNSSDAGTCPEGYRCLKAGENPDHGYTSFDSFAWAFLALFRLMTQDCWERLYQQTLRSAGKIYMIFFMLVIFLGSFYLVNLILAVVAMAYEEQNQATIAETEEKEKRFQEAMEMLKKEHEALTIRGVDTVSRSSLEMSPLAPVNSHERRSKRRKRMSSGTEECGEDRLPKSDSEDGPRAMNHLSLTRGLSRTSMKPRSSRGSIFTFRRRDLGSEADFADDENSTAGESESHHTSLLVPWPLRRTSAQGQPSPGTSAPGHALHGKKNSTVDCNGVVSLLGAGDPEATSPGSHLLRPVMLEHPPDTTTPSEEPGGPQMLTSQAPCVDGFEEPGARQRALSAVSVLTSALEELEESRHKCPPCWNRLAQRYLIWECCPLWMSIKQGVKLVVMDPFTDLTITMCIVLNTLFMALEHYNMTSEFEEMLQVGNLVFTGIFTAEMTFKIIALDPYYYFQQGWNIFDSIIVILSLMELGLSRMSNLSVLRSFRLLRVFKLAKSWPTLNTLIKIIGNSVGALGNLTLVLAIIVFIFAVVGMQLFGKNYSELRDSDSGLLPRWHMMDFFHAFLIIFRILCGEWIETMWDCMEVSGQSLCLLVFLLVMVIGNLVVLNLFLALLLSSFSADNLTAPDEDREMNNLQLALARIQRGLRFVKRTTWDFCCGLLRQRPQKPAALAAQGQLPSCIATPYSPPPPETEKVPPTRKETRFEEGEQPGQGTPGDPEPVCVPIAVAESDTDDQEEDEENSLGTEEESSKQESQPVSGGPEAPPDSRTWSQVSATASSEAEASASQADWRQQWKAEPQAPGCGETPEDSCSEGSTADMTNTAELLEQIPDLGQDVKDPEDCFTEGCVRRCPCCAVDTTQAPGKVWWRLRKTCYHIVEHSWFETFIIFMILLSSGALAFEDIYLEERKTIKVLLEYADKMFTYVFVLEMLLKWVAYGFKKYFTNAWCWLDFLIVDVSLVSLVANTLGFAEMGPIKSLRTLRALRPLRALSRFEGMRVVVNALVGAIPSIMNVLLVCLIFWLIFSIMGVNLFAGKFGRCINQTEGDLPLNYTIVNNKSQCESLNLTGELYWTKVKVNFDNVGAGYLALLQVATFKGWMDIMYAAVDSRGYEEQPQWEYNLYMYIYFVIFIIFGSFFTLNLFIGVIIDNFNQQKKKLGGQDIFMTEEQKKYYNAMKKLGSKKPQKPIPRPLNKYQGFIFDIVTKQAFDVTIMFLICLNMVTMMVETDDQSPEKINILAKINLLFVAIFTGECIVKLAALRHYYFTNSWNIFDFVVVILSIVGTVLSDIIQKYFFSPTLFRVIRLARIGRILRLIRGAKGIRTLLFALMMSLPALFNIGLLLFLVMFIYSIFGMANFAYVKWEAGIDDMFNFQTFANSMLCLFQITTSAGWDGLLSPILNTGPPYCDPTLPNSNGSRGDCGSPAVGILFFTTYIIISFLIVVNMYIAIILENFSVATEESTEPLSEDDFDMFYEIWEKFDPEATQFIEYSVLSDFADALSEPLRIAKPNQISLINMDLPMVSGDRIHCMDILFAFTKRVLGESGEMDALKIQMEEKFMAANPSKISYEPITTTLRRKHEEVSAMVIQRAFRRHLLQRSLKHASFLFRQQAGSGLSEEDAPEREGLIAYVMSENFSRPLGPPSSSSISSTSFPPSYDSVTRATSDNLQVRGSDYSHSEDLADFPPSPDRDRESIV
T1 sequence (Q9UQD0 whole entry): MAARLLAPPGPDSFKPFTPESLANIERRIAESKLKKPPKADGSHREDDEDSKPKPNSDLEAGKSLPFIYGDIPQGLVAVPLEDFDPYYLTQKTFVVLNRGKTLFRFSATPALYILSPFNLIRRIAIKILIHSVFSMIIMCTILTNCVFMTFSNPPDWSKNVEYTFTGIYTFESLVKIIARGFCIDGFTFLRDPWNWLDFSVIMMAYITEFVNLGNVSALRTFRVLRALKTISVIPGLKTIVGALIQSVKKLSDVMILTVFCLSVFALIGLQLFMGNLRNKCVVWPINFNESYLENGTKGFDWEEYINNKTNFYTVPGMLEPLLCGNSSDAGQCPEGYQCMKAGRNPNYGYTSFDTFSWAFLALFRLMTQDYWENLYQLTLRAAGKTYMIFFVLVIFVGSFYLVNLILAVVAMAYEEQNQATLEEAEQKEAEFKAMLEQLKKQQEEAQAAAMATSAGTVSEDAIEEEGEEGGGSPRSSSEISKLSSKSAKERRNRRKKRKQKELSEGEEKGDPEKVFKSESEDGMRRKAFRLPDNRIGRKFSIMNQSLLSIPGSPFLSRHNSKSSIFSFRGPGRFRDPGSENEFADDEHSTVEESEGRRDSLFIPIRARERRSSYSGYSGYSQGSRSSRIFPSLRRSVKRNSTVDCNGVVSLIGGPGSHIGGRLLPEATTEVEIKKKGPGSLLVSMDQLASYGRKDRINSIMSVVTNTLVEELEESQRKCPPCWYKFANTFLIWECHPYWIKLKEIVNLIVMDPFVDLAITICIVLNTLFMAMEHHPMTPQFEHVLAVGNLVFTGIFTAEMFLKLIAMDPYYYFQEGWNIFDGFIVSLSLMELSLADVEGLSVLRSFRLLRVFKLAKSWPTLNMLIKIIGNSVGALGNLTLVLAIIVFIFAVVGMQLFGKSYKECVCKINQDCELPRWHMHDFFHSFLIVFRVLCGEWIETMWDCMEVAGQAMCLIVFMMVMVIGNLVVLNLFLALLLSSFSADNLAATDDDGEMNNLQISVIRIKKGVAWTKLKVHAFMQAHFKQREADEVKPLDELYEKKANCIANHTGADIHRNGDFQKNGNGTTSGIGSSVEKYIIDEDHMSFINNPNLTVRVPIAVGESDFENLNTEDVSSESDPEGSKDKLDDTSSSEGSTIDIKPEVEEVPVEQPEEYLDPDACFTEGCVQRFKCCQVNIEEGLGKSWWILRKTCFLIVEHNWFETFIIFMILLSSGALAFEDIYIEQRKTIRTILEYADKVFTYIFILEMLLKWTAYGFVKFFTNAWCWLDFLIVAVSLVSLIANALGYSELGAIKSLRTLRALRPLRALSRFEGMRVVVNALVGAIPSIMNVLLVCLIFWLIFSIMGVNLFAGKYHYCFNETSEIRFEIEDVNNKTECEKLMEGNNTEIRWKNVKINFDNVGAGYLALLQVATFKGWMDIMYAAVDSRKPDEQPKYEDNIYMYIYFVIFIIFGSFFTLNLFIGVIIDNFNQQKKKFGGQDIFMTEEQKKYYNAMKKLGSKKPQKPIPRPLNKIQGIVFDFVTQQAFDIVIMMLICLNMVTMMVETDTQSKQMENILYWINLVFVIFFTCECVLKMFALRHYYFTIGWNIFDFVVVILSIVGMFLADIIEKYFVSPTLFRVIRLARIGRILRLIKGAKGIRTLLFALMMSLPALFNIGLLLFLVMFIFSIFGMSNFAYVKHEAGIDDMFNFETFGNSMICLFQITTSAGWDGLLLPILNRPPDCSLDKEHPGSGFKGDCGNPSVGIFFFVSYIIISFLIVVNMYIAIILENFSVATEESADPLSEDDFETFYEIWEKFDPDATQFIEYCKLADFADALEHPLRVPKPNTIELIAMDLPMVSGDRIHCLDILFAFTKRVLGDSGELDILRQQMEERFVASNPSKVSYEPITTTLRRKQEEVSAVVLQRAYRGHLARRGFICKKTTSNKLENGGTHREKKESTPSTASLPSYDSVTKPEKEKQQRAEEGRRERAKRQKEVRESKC

As for `Cc1c(O[C@@]2(C)CCN(Cc3ccccc3)C2)cc(F)c(S(=O)(=O)Nc2cscn2)c1F` [Example 158, (S)-4-((1-benzyl-3-methylpyrrolidin-3-yl)oxy)-2,6-difluoro-3-methyl-N-(thiazol-4-yl)benzenesulfonamide formate], the IC50 at NaV1.5 is above 30 µM; against NaV1.1 it was 24.2 µM; at NaV1.6 [1], 0.008 µM; on NaV1.6 [2], 0.009 µM.

As for `CC1(C)CN(Cc2ccccc2)CCC1Oc1ccc(S(=O)(=O)Nc2ncns2)cc1Cl` (stereo not drawn) [Example 2, 4-((1-benzyl-3,3-dimethylpiperidin-4-yl)oxy)-3-chloro-N-(1,2,4-thiadiazol-5-yl)benzenesulfonamide 2,2,2-trifluoroacetate], the IC50 on NaV1.5 is 6.33 µM; on NaV1.1, 22.5 µM; against NaV1.6 [1], 0.381 µM; on NaV1.6 [2], 1.36 µM.

In the case of `O=S(=O)(Nc1nccs1)c1ccc(OC2CCN(Cc3ccccc3)CC2)c(Cl)c1` [Example 95, 4-(1-benzylpiperidin-4-yloxy)-3-chloro-N-(thiazol-2-yl)benzenesulfonamide 2,2,2-trifluoroacetate], the IC50 is 20.9 µM on NaV1.5, 0.177 µM on NaV1.6 [1] and 0.416 µM at NaV1.6 [2].

As to `Cc1cc(S(=O)(=O)Nc2cscn2)c(F)cc1N(C)[C@H]1CCN(Cc2ccccc2)C1` [Example 101, (S)-4-((1-benzylpyrrolidin-3-yl)(methyl)amino)-2-fluoro-5-methyl-N-(thiazol-4-yl)benzenesulfonamide formate], the results for the IC50 against NaV1.6 [1] and at NaV1.6 [2] were 0.054 µM and 0.272 µM, respectively.

As for `C[C@H](c1ccccc1)N1CCC(Oc2ccc(S(=O)(=O)Nc3nccs3)cc2Cl)CC1` [Example 55, (R)-3-chloro-4-((1-(1-phenylethyl)piperidin-4-yl)oxy)-N-(thiazol-2-yl)benzenesulfonamide 2,2,2-trifluoroacetate], the IC50 is 0.032 µM on NaV1.6 [1] and 0.187 µM at NaV1.6 [2].

On to `CN(c1cc(F)c(S(=O)(=O)Nc2cscn2)cc1Cl)[C@H]1CCN(Cc2cccn2C)C1` [Example 181, (S)-5-chloro-2-fluoro-4-(methyl(1-((1-methyl-1H-pyrrol-2-yl)methyl)pyrrolidin-3-yl)amino)-N-(thiazol-4-yl)benzene-sulfonamide], for which the IC50 on NaV1.5 is above 30 µM; against NaV1.1, above 30 µM; at NaV1.6 [2], 3.15 µM.

`Cc1cccc(CN2CC[C@H](N(C)c3ccc(S(=O)(=O)Nc4ncns4)cc3Cl)C2)c1F` [Example 34, (S)-3-chloro-4-((1-(2-fluoro-3-methylbenzyl)pyrrolidin-3-yl)(methyl)amino)-N-(1,2,4-thiadiazol-5-yl)benzenesulfonamide 2,2,2-trifluoroacetate]: the IC50 at NaV1.5 is above 30 µM; against NaV1.1, 19.9 µM; at NaV1.6 [2] it was 0.039 µM.

For the molecule `CN(c1cc(F)c(S(=O)(=O)Nc2cscn2)cc1Cl)[C@H]1CCN(Cc2ccc(C(F)(F)F)o2)C1` [Example 164, (S)-5-chloro-2-fluoro-4-(methyl(1-((5-(trifluoromethyl)furan-2-yl)methyl)pyrrolidin-3-yl)amino)-N-(thiazol-4-yl)benzene-sulfonamide 2,2,2-trifluoroacetate], the IC50 came out at 12.9 µM on NaV1.5, 6.03 µM on NaV1.1 and 4.45 µM at NaV1.6 [2].

On to `C[C@H](c1cc(C(F)F)ccc1F)N1CCC(Oc2ccc(S(=O)(=O)Nc3cscn3)cc2Cl)CC1` [Example 292, (R)-3-chloro-4-((1-(1-(5-(difluoromethyl)-2-fluorophenyl)ethyl)piperidin-4-yl)oxy)-N-(thiazol-4-yl)benzenesulfonamide formate], for which the IC50 worked out at 1.88 µM at NaV1.5, 3.79 µM against NaV1.1 and 2.78 µM at NaV1.6 [2].

For `Cc1cc(CN2CC[C@H](N(C)c3cc(F)c(S(=O)(=O)Nc4cscn4)cc3Cl)C2)ccc1F` [Example 211, (S)-5-chloro-2-fluoro-4-((1-(4-fluoro-3-methylbenzyl)pyrrolidin-3-yl)(methyl)amino)-N-(thiazol-4-yl)benzenesulfonamide], the IC50 is 7.85 µM at NaV1.5, 4.98 µM on NaV1.1 and 2.92 µM at NaV1.6 [2].

Consider `Cc1ccnc(CN2CC[C@H](N(C)c3cc(F)c(S(=O)(=O)Nc4cscn4)cc3Cl)C2)c1` [Example 216, (S)-5-chloro-2-fluoro-4-(methyl(1-((4-methylpyridin-2-yl)methyl)pyrrolidin-3-yl)amino)-N-(thiazol-4-yl)benzenesulfonamide], for which the IC50 on NaV1.5 is above 30 µM; on NaV1.1, above 30 µM; at NaV1.6 [2], 3.71 µM.

For the molecule `Cc1ccc(CN2CC[C@H](N(C)c3cc(F)c(S(=O)(=O)Nc4cscn4)cc3C)C2)o1` [Example 132, (S)-2-fluoro-5-methyl-4-(methyl(1-((5-methylfuran-2-yl)methyl)pyrrolidin-3-yl)amino)-N-(thiazol-4-yl)benzenesulfonamide], the IC50 at NaV1.5 was above 30 µM; against NaV1.1 it was 20.9 µM; at NaV1.6 [2], 0.146 µM.

For the molecule `CC[C@H](c1ccccc1)N1CC[C@H](N(C)c2cc(F)c(S(=O)(=O)Nc3cscn3)cc2Cl)C1` [Example 243, 5-chloro-2-fluoro-4-(methyl((S)-1-((R)-1-phenylpropyl)pyrrolidin-3-yl)amino)-N-(thiazol-4-yl)benzenesulfonamide], the IC50 amounted to 25.7 µM on NaV1.5, 13.1 µM against NaV1.1 and 1.06 µM at NaV1.6 [2].

Regarding `Cc1cc(S(=O)(=O)Nc2cscn2)c(F)cc1N(C)[C@H]1CCN(Cc2ncccc2OC(C)C)C1` [Example 116, (S)-2-fluoro-4-((1-((3-isopropoxypyridin-2-yl)methyl)pyrrolidin-3-yl)(methyl)amino)-5-methyl-N-(thiazol-4-yl)benzenesulfonamide formate], the results for the IC50 at NaV1.5, on NaV1.1 and on NaV1.6 [2] were above 30 µM, 29.3 µM and 0.529 µM, respectively.

With `Cc1cc(S(=O)(=O)Nc2cscn2)c(F)cc1N(C)[C@H]1CCN(Cc2ccc(O)cc2)C1` [Example 126, (S)-2-fluoro-4-((1-(4-hydroxybenzyl)-pyrrolidin-3-yl)(methyl)amino)-5-methyl-N-(thiazol-4-yl)benzenesulfonamide], the IC50 is above 30 µM on NaV1.5, above 30 µM against NaV1.1 and 4.52 µM on NaV1.6 [2].

`O=S(=O)(Nc1nccs1)c1ccc(OC2CCN(Cc3cccc(OC(F)F)c3)CC2)c(Cl)c1` [Example 5, 3-chloro-4-((1-(3-(difluoromethoxy)benzyl)piperidin-4-yl)oxy)-N-(thiazol-2-yl)benzenesulfonamide]: the IC50 on NaV1.5 came to 4.37 µM; on NaV1.1, 6.3 µM; on NaV1.6 [2], 1.36 µM.

For the molecule `Cc1c(N(C)[C@H]2CCN(Cc3ccccc3)C2)cc(F)c(S(=O)(=O)Nc2ccc(F)cn2)c1F` [Example 302, (S)-4-((1-benzylpyrrolidin-3-yl)(methyl)amino)-2,6-difluoro-N-(5-fluoropyridin-2-yl)-3-methylbenzenesulfonamide formate], the IC50 on NaV1.5 came out at 28.9 µM; on NaV1.1 it was 9.55 µM; on NaV1.6 [2] it was 1.16 µM.

Turning to `Cc1c(NC2(C)CN(Cc3ccccc3)C2)cc(F)c(S(=O)(=O)Nc2cscn2)c1F` [Example 233, 4-((1-benzyl-3-methylazetidin-3-yl)amino)-2,6-difluoro-3-methyl-N-(thiazol-4-yl)benzenesulfonamide 2,2,2-trifluoroacetate], the IC50 on NaV1.5 came out at 27.3 µM; against NaV1.1, 6.02 µM; at NaV1.6 [2], 0.375 µM.

With `O=S(=O)(Nc1nccs1)c1ccc(OC2CCN(Cc3cccnc3)CC2)c(Cl)c1` [Example 64, 3-chloro-4-((1-(pyridin-3-ylmethyl)piperidin-4-yl)oxy)-N-(thiazol-2-yl)benzenesulfonamide], the IC50 at NaV1.5 is above 30 µM; on NaV1.1 it was above 30 µM; at NaV1.6 [2], 5.63 µM.

Regarding `Cc1nc(CN2CC[C@H](N(C)c3cc(F)c(S(=O)(=O)Nc4cscn4)cc3C)C2)cs1` [Example 110, (S)-2-fluoro-5-methyl-4-(methyl(1-((2-methylthiazol-4-yl)methyl)pyrrolidin-3-yl)amino)-N-(thiazol-4-yl)benzenesulfonamide formate], the IC50 on NaV1.5 is above 30 µM; against NaV1.1, above 30 µM; on NaV1.6 [2], 0.262 µM.

One may read the IC50 as the midpoint of a concentration-inhibition curve.
